Source: patent publication US20140154317A1, “Pharmaceutical Composition for Treatment of Helicobacter Pylori Associated Diseases” (priority 2012, published 2014)

How the values were obtained:
[1] = cited from earlier work
[2] = tested on: gram positive and gram negative, aerobic, and anaerobic bacteria; settings: in vivo or in vitro; cited from earlier work
AGS cells = experiment: Matrigel transwell invasion assay with CXCL12, AGS; format: cell-based; settings: 5 μm, cell line not given
Description: (A) MDA-MB-231 (2×10^5 cells) were seeded in the top-chamber of the Matrigel. After pre-incubation with or without the composition according to Ex. 6 and its major active components (5 μm) for 6 h, transwell chambers were then placed into the wells of a 24-well plate, in which we had added either the basal medium only or basal medium containing 10 ng/ml CXCL12 for 24 h. After incubation, they were assessed for cell invasion. Columns indicate mean percentage of invaded cells; bars, S.E. *, […]. (B) AGS (2×10^5 cells) were seeded in the top-chamber of the Matrigel. […], transwell chambers were then placed into the wells of a 24-well plate, in […] After incubation, the chambers were assessed for cell invasion. Columns indicate mean percentage of invaded cells; bars, S.E. *, […]. Representative results of three independent experiments are shown. […] AGS cells were treated with 5 μm of the composition and its major active components for indicated times. Total RNA was isolated and analyzed by RT-PCR assay. […] Representative results of three independent experiments are shown. […] Cells were incubated with 5 μm of the active ingredients of the composition and its single major active components for indicated times. Whole-cell extracts were prepared and analyzed by Western blot analysis using antibodies against CXCR4. The same blots were stripped and reprobed with β-actin antibody to show equal protein loading. Representative results of three independent experiments are shown.

CXCR4 mRNA = CXCR4 mRNA expression by RT-PCR in AGS cells; format: cell-based; settings: 5 μm
Description: (A) MDA-MB-231 (2×10^5 cells) were seeded in the top-chamber of the Matrigel. After pre-incubation with or without the composition according to Ex. 6 and its major active components (5 μm) for 6 h, transwell chambers were then placed into the wells of a 24-well plate, in which we had added either the basal medium only or basal medium containing 10 ng/ml CXCL12 for 24 h. After incubation, they were assessed for cell invasion. Columns indicate mean percentage of invaded cells; bars, S.E. *, P>0.05. (B) AGS (2×10^5 cells) were seeded in the top-chamber of the Matrigel. After preincubation with or without the composition and its major active components (5 μm) for 6 h, transwell chambers were then placed into the wells of a 24-well plate, in which we had added either the basal medium only or basal medium containing 100 ng/ml CXCL12 for 24 h. After incubation, the chambers were assessed for cell invasion. Columns indicate mean percentage of invaded cells; bars, S.E. *, P>0.05. Representative results of three independent experiments are shown. […] AGS cells were treated with 5 μm of the composition and its major active components for indicated times. Total RNA was isolated and analyzed by RT-PCR assay. […] Representative results of three independent experiments are shown. […] Cells were incubated with 5 μm of the active ingredients of the composition and its single major active components for indicated times. Whole-cell extracts were prepared and analyzed by Western blot analysis using antibodies against CXCR4. The same blots were stripped and reprobed with β-actin antibody to show equal protein loading. Representative results of three independent experiments are shown.

CXCR4 [3] = experiment: CXCR4 protein expression, Western blot of whole-cell extracts of gastric cancer cells; format: cell-based; settings: 6 h, line not given
CXCR4 [4] = experiment: as above; format: cell-based; settings: 5.0 μm, 6 h, line not given
Description: Different tumor cell types, namely gastric cancer (AGS, MKN45, and SNU16) cells were incubated with different components of the composition as well as a combination according to the finished product for 6 h. Whole-cell extracts were prepared and analyzed by Western blot analysis using antibody against CXCR4. The same blots were stripped and reprobed with β-actin antibody to show equal protein loading. Representative results of three independent experiments are shown.
The same experiment was carried out to find out whether the composition downregulates expression of CXCR4 in gastric (AGS, MKN45, and SNU16) cancer cell lines, which has never been investigated before. Cells were treated with 5 μm active ingredients of Ex. 6 and its major active components for 6 h before assessing the resultant effect on CXCR4 expression.
(A) MDA-MB-231 (2×10^5 cells) were seeded in the top-chamber of the Matrigel. After pre-incubation with or without the composition according to Ex. 6 and its major active components (5 μm) for 6 h, transwell chambers were then placed into the wells of a 24-well plate, in which we had added either the basal medium only or basal medium containing 10 ng/ml CXCL12 for 24 h. After incubation, they were assessed for cell invasion. Columns indicate mean percentage of invaded cells; bars, S.E. *, […]. (B) AGS (2×10^5 cells) were seeded in the top-chamber of the Matrigel. After preincubation with or without the composition and its major active components (5 μm) for 6 h, transwell chambers were then placed into the wells of a 24-well plate, in which we had added either the basal medium only or basal medium containing […] CXCL12 for 24 h. After incubation, the chambers were assessed for cell invasion. Columns indicate mean percentage of invaded cells; bars, S.E. *, […]. Representative results of three independent experiments are shown. […] Total RNA was isolated and analyzed by RT-PCR assay. […] Whole-cell extracts were prepared and analyzed by Western blot analysis using antibodies against CXCR4. […]

Row | SMILES | cumulative dose shown safe and well tolerated ([1]; cumulative doses) [g] | systemic dose shown safe and well tolerated ([1]; systemic doses) | Resistance (in words) [2] | Percentage of invade cells (AGS cells; time 0 hours) [%] | Percentage of invade cells (AGS cells; time 2 hours) [%] | Percentage of invade cells (AGS cells; time 6 hours) [%] | Percentage of invade cells (AGS cells; time 8 hours) [%] | Percentage of invade cells (AGS cells; time 12 hours) [%] | Percentage of invade cells (AGS cells; time 24 hours) [%] | mRNA fold change (CXCR4) (CXCR4 mRNA; time 0 hours) | mRNA fold change (CXCR4) (CXCR4 mRNA; time 2 hours) | mRNA fold change (CXCR4) (CXCR4 mRNA; time 6 hours) | mRNA fold change (CXCR4) (CXCR4 mRNA; time 8 hours) | mRNA fold change (CXCR4) (CXCR4 mRNA; time 12 hours) | mRNA fold change (CXCR4) (CXCR4 mRNA; time 24 hours) | Fold change (CXCR4 expression) (CXCR4 [3]; 0.5 μm) | Fold change (CXCR4 expression) (CXCR4 [3]; 1.0 μm) | Fold change (CXCR4 expression) (CXCR4 [3]; 2.5 μm) | Fold change (CXCR4 expression) (CXCR4 [4])
1 | O=S1(=O)CCN(CN2CCS(=O)(=O)NC2)CN1 [Taurolidine, [bis(1,1-dioxoperhydro-1,2,4-thiadiazinyl-4)]-methane] | ≥ 300 | exceeding 40 g/day | has not been observed |  |  |  |  |  |  |  |  |  |  |  |  |  |  |  | 
2 | CCS(=O)(=O)CCn1c([N+](=O)[O-])cnc1C [TND, tinidazole] |  |  |  | 85.23 ± 11.51 | 81.10 ± 14.20 | 72.55 ± 8.10 | 64.65 ± 10.11 | 51.33 ± 8.20 | 42.25 ± 8.55 | 0.94 ± 0.02 | 0.83 ± 0.01 | 0.79 ± 0.04 | 0.65 ± 0.03 | 0.51 ± 0.03 | 0.39 ± 0.03 | 1.4 ± 0.01 | 0.98 ± 0.01 | 0.85 ± 0.01 | 0.53 ± 0.03
3 | CC[C@H]1OC(=O)[C@H](C)[C@@H](O[C@H]2C[C@@](C)(OC)[C@@H](O)[C@H](C)O2)[C@H](C)[C@@H](O[C@@H]2O[C@H](C)C[C@H](N(C)C)[C@H]2O)[C@](C)(OC)C[C@@H](C)C(=O)[C@H](C)[C@@H](O)[C@]1(C)O [CLR, clarithromycin] |  |  |  | 85.23 ± 11.51 | 80.22 ± 10.25 | 77.26 ± 9.14 | 62.27 ± 6.50 | 55.20 ± 7.10 | 48.20 ± 6.15 | 0.90 ± 0.05 | 0.78 ± 0.02 | 0.63 ± 0.03 | 0.50 ± 0.03 | 0.42 ± 0.03 | 0.37 ± 0.03 | 1.3 ± 0.01 | 0.97 ± 0.01 | 0.79 ± 0.04 | 0.44 ± 0.01
4 | COc1ccc2[nH]c([S+]([O-])Cc3ncc(C)c(OC)c3C)nc2c1 (stereo not drawn) [PPI, Omeprazol] |  |  |  | 85.23 ± 11.51 | 82.10 ± 15.10 | 74.11 ± 6.25 | 60.12 ± 11.50 | 49.25 ± 7.26 | 39.25 ± 4.15 | 0.92 ± 0.02 | 0.88 ± 0.021 | 0.67 ± 0.06 | 0.54 ± 0.04 | 0.41 ± 0.04 | 0.38 ± 0.04 | 1.4 ± 0.02 | 0.96 ± 0.03 | 0.81 ± 0.05 | 0.46 ± 0.02
